This is an account of results in ChEMBL document CHEMBL1201862, “PubChem BioAssay data set” (2004).

Structures are written as SMILES. Several values for one entry are separate records, joined by “and”; a condition that tells them apart may be missing. Equal entries are not always repeated.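 Exposure lasted 48 hours, with cells grown in 96-well plates and compounds tested at five concentrations. GI50 is the concentration that inhibits growth by half.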 Activity calls are given as the source filed them. Cut-off read from the data, not from the text of the source: active = GI50 up to about 1.1 µM and inactive = higher.

Some test systems named below: DU-145; A498; 786-0; NCI/ADR-RES; NCI-H226; CAKI-1; OVCAR-4; TK-10; LOX IMVI; ACHN; SR; MDA-N; OVCAR-3; HCT-116; SNB-75; SF-295; SK-MEL-2; SK-MEL-5; UACC-257; RXF 393.
Holding throughout (test): NCI tumour cell line growth inhibition, 48 h

With `C=C(C)C(=O)[C@@]12C(=O)[C@@H](C)CC[C@H]1[C@H](C)C[C@@H]2C=C(C)C`, the GI50 in the assay on DU-145 is 38.4 µM (inactive); with A498 it was 52.4 µM (inactive); in the assay on 786-0 it was 20.1 µM (inactive); in the assay on NCI/ADR-RES, 27.8 µM (inactive); in the assay on NCI-H226, < 0.01 µM (active); with CAKI-1 it was 29.4 µM (inactive). Besides, the GI50 was 28.8 µM (inactive) in the assay on OVCAR-4; 47.6 µM (inactive) with TK-10; 18.7 µM (inactive) in the assay on LOX IMVI; 12.9 µM (inactive) in the assay on ACHN; > 10 µM (inactive) in the assay on SR; 24.1 µM (inactive) in the assay on MDA-N. Further, the GI50 was 19.5 µM (inactive) in the assay on OVCAR-3; 14.9 µM (inactive) in the assay with HCT-116; 34.8 µM (inactive) in the assay with SNB-75; 33.9 µM (inactive) in the assay with SF-295; 13.8 µM (inactive) in the assay on SK-MEL-2; 19.4 µM (inactive) with SK-MEL-5. The GI50 in the assay with UACC-257 was 15.2 µM (inactive).
Consider `CCOC(=O)CCSS(=O)(=O)C(F)(F)F`, for which the GI50 with DU-145, with A498, in the assay with 786-0, with NCI/ADR-RES, with NCI-H226 and in the assay with CAKI-1 was > 100 µM (inactive) each time. Further, the GI50 with OVCAR-4, in the assay on TK-10, with LOX IMVI, with ACHN, in the assay on MDA-N and in the assay with OVCAR-3 was > 100 µM (inactive) each time. For the same molecule, the GI50 with HCT-116, with SNB-75, in the assay with SF-295, in the assay on SK-MEL-2, in the assay with SK-MEL-5 and in the assay on RXF 393 was > 100 µM (inactive) each time. For the same molecule, the GI50 in the assay with UACC-257 is > 100 µM (inactive).
On to `CC1(O)OC(=O)C2=C1CCC1C2CCC2(C)C(O)CCC12` (stereo unspecified), for which the GI50 in the assay with DU-145, in the assay on A498, in the assay on 786-0, in the assay on NCI/ADR-RES, in the assay with NCI-H226 and with CAKI-1 was > 100 µM (inactive) each time. The GI50 in the assay on OVCAR-4 was > 100 µM (inactive); with TK-10, > 100 µM (inactive); with LOX IMVI it was 25.6 µM (inactive); in the assay with ACHN it was > 100 µM (inactive); in the assay on SR it was > 100 µM (inactive); with MDA-N, > 100 µM (inactive). Further, the GI50 in the assay with OVCAR-3, in the assay with HCT-116, with SF-295, with SK-MEL-5 and in the assay with UACC-257 was > 100 µM (inactive) in each case.
As for `O=C(O)C1(C(O)c2ccccc2)SCCCS1` (stereo unspecified), the GI50 with DU-145, with A498, in the assay on 786-0, in the assay with NCI-H226, with TK-10 and in the assay on LOX IMVI was > 10 µM (inactive) in each case. The GI50 in the assay on ACHN, in the assay on SR, in the assay on MDA-N, in the assay on OVCAR-3, in the assay on HCT-116 and in the assay on SNB-75 was > 10 µM (inactive) in each case. Also, the GI50 in the assay with SF-295, in the assay with SK-MEL-2, with SK-MEL-5, with RXF 393 and in the assay with UACC-257 was > 10 µM (inactive) in each case.
On to `O=c1c(-c2ccc(O)cc2)coc2cc(O)cc(O)c12` [GENISTEIN], for which the GI50 was 92.5 µM (inactive) in the assay on DU-145; 43.2 µM (inactive) in the assay on 786-0; > 100 µM (inactive) in the assay with NCI/ADR-RES; 74.1 µM (inactive) in the assay with NCI-H226; > 100 µM (inactive) with OVCAR-4; > 100 µM (inactive) in the assay with TK-10. Besides, the GI50 in the assay on ACHN is 29.7 µM (inactive); in the assay with SR, 56.8 µM (inactive); with MDA-N, > 100 µM (inactive); with SF-295 it was 55 µM (inactive); in the assay on SK-MEL-5, > 100 µM (inactive).
On to `Cc1cc(C)c(S(=O)(=O)N(CCCCN)OCCCN)c(C)c1`, for which the GI50 was 15.6 µM (inactive) in the assay with DU-145; 20.7 µM (inactive) in the assay with NCI/ADR-RES; 16.5 µM (inactive) with NCI-H226; 17.4 µM (inactive) in the assay with CAKI-1; 17.5 µM (inactive) with OVCAR-4; 18 µM (inactive) in the assay with TK-10. Also, the GI50 was 15.2 µM (inactive) with LOX IMVI; 22.5 µM (inactive) with ACHN; 9.59 µM (inactive) with SR; 16.4 µM (inactive) in the assay with MDA-N; 18.4 µM (inactive) in the assay with OVCAR-3; 16.7 µM (inactive) with HCT-116. For the same molecule, the GI50 in the assay with SNB-75 is 13.5 µM (inactive); in the assay with SF-295, 19.6 µM (inactive); in the assay on SK-MEL-2, 15.1 µM (inactive); with SK-MEL-5, 23.7 µM (inactive); with RXF 393, 15.2 µM (inactive); in the assay on UACC-257 it was 16.2 µM (inactive).
On to `CC(=O)OCC1OC(N2C(=O)NC(=O)C3C=C4CCCCC4=CC32)C(OC(C)=O)C1OC(C)=O` (stereo unspecified), for which the GI50 in the assay on DU-145, with A498, in the assay with CAKI-1, with OVCAR-4, with TK-10 and in the assay with LOX IMVI was > 100 µM (inactive) each time. Besides, the GI50 with ACHN, in the assay on SR, in the assay on MDA-N, in the assay on OVCAR-3, with HCT-116 and with SF-295 was > 100 µM (inactive) in each case. The GI50 in the assay on SK-MEL-2, with SK-MEL-5, in the assay on RXF 393 and with UACC-257 was > 100 µM (inactive) each time.
For `COc1cc(NC(C)CCCN)c2ncccc2c1` (stereo unspecified) [PRIMAQUINE PHOSPHATE], the GI50 in the assay with DU-145 was 99.1 µM (inactive); in the assay with NCI/ADR-RES, > 100 µM (inactive); with NCI-H226 it was > 68.5 µM (inactive) and 97.9 µM (inactive); in the assay on CAKI-1, 59 µM (inactive) and 62.4 µM (inactive); in the assay with OVCAR-4, > 88.3 µM (inactive); with TK-10, 49.8 µM (inactive) and > 94.4 µM (inactive). Moreover, the GI50 with LOX IMVI is 43.9 µM (inactive) and 51.4 µM (inactive); with ACHN, 51.6 µM (inactive) and 82 µM (inactive); in the assay with MDA-N, 29.6 µM (inactive); with OVCAR-3, 22.6 µM (inactive) and 43.7 µM (inactive); in the assay with SNB-75, 47.2 µM (inactive) and 24.1 µM (inactive); in the assay with SF-295, 98.2 µM (inactive) and 52.4 µM (inactive). Further, the GI50 with SK-MEL-2 was 26.9 µM (inactive) and 45.1 µM (inactive); in the assay on SK-MEL-5 it was 29.8 µM (inactive) and 17.8 µM (inactive).
